This note sets out measurements from patent US20210169899A1, “COMPOSITIONS AND THEIR USE IN ORAL DOSING REGIMENS” (Lipocine Inc., priority 2014, published 2021).

The nature of this series: Clinical trial of oral testosterone undecanoate TRT in hypogonadal males, 24 hour PK profiles of serum testosterone with dose titration at weeks 3 and 7. The format is in vivo, human. As for the experimental part: Specifically, 24 hour pharmacokinetic profiles for serum testosterone were determined for hypogonadal subjects receiving 225 mg TU twice daily with a meal after 3 weeks of treatment. The titration or dose adjustment was made based on the serum testosterone Cavg0-24 value calculated from the 24 hour pharmacokinetic profile (or the Cmax value). Another titration or dose adjustment was made similarly at 7 weeks. The titration or adjustment criteria used during the study is shown in the first column of Table A with the titration decision (dose adjustment) is shown in column 3.
A clinical trial was performed as set forth below in regards to the TRT disclosed herein.
Diagnosis of primary or secondary hypogonadism Male, 18 to 80 years of age, hypogonadism onset prior to age 65 Serum T<300 ng/dL, based on 2 consecutive samples, obtained on two separate days (6 to 10 AM) either naïve or following appropriate washout.
IPSS≥19 points PSA>2 ng/mL
Hemoglobin <11.5 or >16.5 g/dL; Hematocrit <35 or >54% History of myocardial infarction; prostate or breast cancer; uncontrolled, untreated obstructive sleep apnea; gastric surgery, HIV, Hepatitis, seizures or convulsions Subjects with a partner who is pregnant or planning to become pregnant during the study A total of 314 subjects were enrolled and randomized into the TRT arm or active control arm. The clinical trial design is outlined in FIG. 1. Starting dose: 225 mg testosterone undecanoate (TU) (equivalent to 142 mg testosterone) twice daily, 12 hours apart, with standard meals Two dose titration periods based on full 24 hour PK profile at Week 3 and 7
The dose range was 150 mg to 300 mg BID (total daily dose of 300 mg to 600 mg TU).
Efficacy Population (N=153): Subjects randomized into the study with at least one PK profile and no significant protocol deviations (includes imputed missing data/LOCF)
Safety Set (N=210): Subjects randomized into the study and took at least one dose of the drug Imputed missing data by Last Observation Carried Forward (LOCF), or considered treatment failures if no PK data available Full Analysis Set (N=193): Subjects randomized into the study with at least one PK profile (includes imputed missing data/LOCF) Per Protocol Set (N=132): Subjects who completed Week 13 without significant protocol deviations Primary endpoint target ≥75% subjects should achieve Cavg within normal range (300 ng/dL to 1140 ng/dL) and >65% lower bound 95% CI

The mark [1] stands for this setting: serum total T, Efficacy Population.

SMILES strings stand for the structures.

As for `CCCCCCCCCCC(=O)O[C@H]1CC[C@H]2[C@@H]3CCC4=CC(=O)CC[C@]4(C)[C@H]3CC[C@]12C` [testosterone undecanoate], for the setting “Efficacy Population”, the “95% CI lower bound of % subjects with Cavg within normal range” value (“95% CI lower bound of % subjects” below) was 81.9%, the “% of subjects with Cavg < 300 ng/dL” value came out at 11.2% and the “% of subjects with Cavg > 1140 ng/dL” value was determined as 0.7%. The “% subjects with Cavg within normal range” value (Efficacy Population, serum testosterone Cavg 300 ng/dL to 1140 ng/dL) worked out at 88.2%. Moreover, for the setting “Full Analysis Set”, the “95% CI lower bound of % subjects” value came to 82.0%. Further, the “% subjects with Cavg within normal range” value (Full Analysis Set, Cavg 300 ng/dL to 1140 ng/dL) is listed as 87.5%. For the same compound, the “95% CI lower bound of % subjects” value (Per Protocol Set) is given as 81.1%. Also, the “% subjects with Cavg within normal range” value (Per Protocol Set, Cavg 300 ng/dL to 1140 ng/dL) stood at 87.9%. The “95% CI lower bound of % subjects” value (Safety Set) was determined as 73.8%. Also, for the setting “Safety Set, Cavg 300 ng/dL to 1140 ng/dL”, the “% subjects with Cavg within normal range” value is reported as 80.0%. In addition, under “comparison table”, the “AM - PM effect” value was “Not much different AM - PM”, the “Subjects with Cavg < 300 ng/dL” value is on record as 11%, the “Variability (CV) of Cavg” value amounted to 37% and the “Variability (CV) of Cmax” value amounted to 45%. The “Mean Cavg” value (comparison table, serum testosterone) is recorded as 447 ng/dL. For the same compound, the “Efficacy (% subjects with Cavg in normal range)” value (comparison table, starting daily dose 450 mg TU) is “analysis (88.2%)”. Further, the “24 hour pharmacokinetic profiles at weeks 3, 7 and 13 (FIG. 2)” value (patients without dose change during the trial) is “consistent inter-day pharmacokinetics”. Moreover, the “Cavg, Mean (CV)” value (serum testosterone, Efficacy Population) is recorded as 447 (37%) ng/dL. For the same compound, under setting [1], the “Proportion of subjects with 1800 ≤ Cmax ≤ 2500 ng/dL” value was found to be 4.6%, the “Proportion of subjects with Cmax < 1500 ng/dL” value is listed as 82.9% and the “Proportion of subjects with Cmax > 2500 ng/dL” value was 2.0%. For the same compound, where the note is “subjects treated with TRT and titration scheme”, the “% subjects with serum testosterone Cavg0-24 h within the normal range” value was “about 87%”.
